Measured values taken from patent US8883782B2, “Spiro-tetracyclic ring compounds as beta-secretase modulators and methods of use” (Amgen Inc., priority 2010, dated 2014).
Like-named read-outs stand apart in the source and are kept apart here.

How the values were obtained:
[1] = molecular target: Beta Secretase enzyme (BACE) (Homo sapiens, UniProt P56817); assay: In vitro enzymatic BACE FRET (fluorescence resonance energy transfer) assay; type: biochemical; details: average IC50, enzyme assay; read-out: BACE 1 FRET assay
Summary of the method: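 Acetate buffer (0.05 M, pH 4.2), 10% DMSO final, 100 uM nonionic detergent genapol. Substrate addition (50 nM FRET peptide) initiates; one-hour incubation; Tris raises pH to neutrality before fluorescence measurement.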

[2] = test system: Aβ40 in conditioned medium of cells stably expressing Amyloid Precursor Protein (APP); assay: In vitro BACE cell-based assay (Aβ40 in conditioned medium, sandwich ELISA); details: read-out: HEK cell assay
Summary of the method: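 Secreted Aβ40 is captured with pAb40 and detected with biotinylated 6E10, read by europium time-resolved fluorescence. IC50 comes from percent inhibition versus concentration.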

[3] = Homo sapiens, HEK293, average IC50
[4] = Homo sapiens, HEK293, average IC50, HEK cells

Beta Secretase enzyme (BACE), sequence (P56817 46-501, species assumed): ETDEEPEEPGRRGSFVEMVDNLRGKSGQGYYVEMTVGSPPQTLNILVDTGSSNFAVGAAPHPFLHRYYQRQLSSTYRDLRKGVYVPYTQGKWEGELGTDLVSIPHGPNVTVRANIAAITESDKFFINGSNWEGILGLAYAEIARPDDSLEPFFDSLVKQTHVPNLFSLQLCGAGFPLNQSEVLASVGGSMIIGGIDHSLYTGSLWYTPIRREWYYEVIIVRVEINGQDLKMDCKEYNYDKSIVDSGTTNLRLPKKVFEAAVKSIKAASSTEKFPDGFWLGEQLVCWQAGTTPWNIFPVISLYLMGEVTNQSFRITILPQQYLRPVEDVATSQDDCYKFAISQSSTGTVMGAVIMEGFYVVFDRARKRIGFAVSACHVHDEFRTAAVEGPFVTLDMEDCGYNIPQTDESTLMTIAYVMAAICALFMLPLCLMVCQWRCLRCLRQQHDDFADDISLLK

SMILES | IC50 [1] [nM] | IC50 [2, 3] [nM] | IC50 [2, 4] [nM] | IC50 ([2]; Homo sapiens, HEK293, average IC50, HEK cell assay) [nM] | IC50 [2] [nM]
Cn1cc(-c2ccc3c(c2)[C@@]2(COC(N)=N2)c2cc(OCC4(C)COC4)c(F)cc2O3)cn1 [Example 332, (4S)-3′-fluoro-2′-((3-methyl-3-oxetanyl)methoxy)-7′-(1-methyl-1H-pyrazol-4-yl)spiro[1,3-oxazole-4,9′-xanthen]-2-amine] | 545 | 490 |  |  | 
COc1ncccc1-c1ccc2c(c1)[C@@]1(COC(N)=N1)c1cc(/C=C/C(C)(C)C)ncc1O2 [Example 408, (5S)-3-((1E)-3,3-dimethyl-1-buten-1-yl)-7-(2-methoxy-3-pyridinyl)spiro[chromeno[2,3-c]pyridine-5,4′-[1,3]oxazol]-2′-amine] | 20.1 |  | 311 |  | 
COc1nc(C2CCCOC2)cc2c1Oc1ccc(-c3cccnc3F)cc1[C@@]21COC(N)=N1 (stereo partly drawn) [Example 844, (5S)-7-(2-fluoro-3-pyridinyl)-1-methoxy-3-(tetrahydro-2H-pyran-3-yl)spiro[chromeno[2,3-c]pyridine-5,4′-[1,3]oxazol]-2′-amine] | 6.7 | 66 |  |  | 
NC1=N[C@]2(CO1)c1cc(C3=CCOCC3)cc(F)c1Oc1ccc(-c3cncnc3)c(F)c12 [Example 1042, (4R)-7′-(3,6-dihydro-2H-pyran-4-yl)-1′,5′-difluoro-2′-(5-pyrimidinyl)spiro[1,3-oxazole-4,9′-xanthen]-2-amine] | 13.5 | 117 |  |  | 
CN(C)c1cc2c(cn1)Oc1ccc(-c3cccnc3F)cc1C21CSC(N)=N1 (centres unmarked) [Example 693, 7-(2-fluoro-3-pyridinyl)-N~3~,N~3~-dimethylspiro[chromeno[2,3-c]pyridine-5,4′-[1,3]thiazole]-2′,3-diamine] | 10.5 |  | 237 |  | 
COc1ncc(F)cc1-c1ccc2c(c1)[C@@]1(COC(N)=N1)c1cc(/C=C/C(C)(C)C)ncc1O2 [Example 407, (5S)-3-((1E)-3,3-dimethyl-1-buten-1-yl)-7-(5-fluoro-2-methoxy-3-pyridinyl)spiro[chromeno[2,3-c]pyridine-5,4′-[1,3]oxazol]-2′-amine] | 5.3 |  | 158 |  | 
NC1=N[C@@]2(CO1)c1cc(-c3ccncc3F)ccc1Oc1cnc(-c3cncc(F)c3)cc12 [Example 575, (5S)-7-(3-fluoro-4-pyridinyl)-3-(5-fluoro-3-pyridinyl)spiro[chromeno[2,3-c]pyridine-5,4′-[1,3]oxazol]-2′-amine] | 83 |  | 971 |  | 
CC1(C#Cc2cncc(-c3ccc4c(c3)[C@@]3(COC(N)=N3)c3cc(C5=CCCOC5)ncc3O4)c2)COC1 [Example 813, (5S)-3-(5,6-dihydro-2H-pyran-3-yl)-7-(5-((3-methyl-3-oxetanyl)ethynyl)-3-pyridinyl)spiro[chromeno[2,3-c]pyridine-5,4′-[1,3]oxazol]-2′-amine] | 2.5 | 53 |  |  | 
CC#Cc1cncc(-c2ccc3c(c2)[C@@]2(COC(N)=N2)c2cc(-c4cnn(C)c4)cnc2O3)c1 [Example 944, (5S)-3-(1-methyl-1H-pyrazol-4-yl)-7-(5-(1-propyn-1-yl)-3-pyridinyl)spiro[chromeno[2,3-b]pyridine-5,4′-[1,3]oxazol]-2′-amine] | 0.5 |  | 1 |  | 
CC1(C)CN(c2cnc3c(c2)[C@]2(COC(N)=N2)c2cc(C#CC4CC4)ccc2O3)CCO1 [Example 179, (5S)-7-(cyclopropylethynyl)-3-(2,2-dimethyl-4-morpholinyl)spiro[chromeno[2,3-b]pyridine-5,4′-[1,3]oxazol]-2′-amine] | 11.1 | 64.1 |  |  | 
C1=C(c2cnc3c(c2)[C@]2(COC(NCc4ccccc4)=N2)c2cc(OCc4ccccc4)ccc2O3)CCOC1 [Example 968, (5S)-N-benzyl-7-(benzyloxy)-3-(3,6-dihydro-2H-pyran-4-yl)spiro[chromeno[2,3-b]pyridine-5,4′-[1,3]oxazol]-2′-amine] | 1260 |  | ≥ 10000 |  | 
Cc1ccc(-c2cc(F)c3c(c2)[C@]2(COC(N)=N2)c2cc(-c4cncc(F)c4)ccc2O3)nn1 [Example 292, (4S)-4′-fluoro-7′-(5-fluoro-3-pyridinyl)-2′-(6-methyl-3-pyridazinyl)spiro[1,3-oxazole-4,9′-xanthen]-2-amine] | 2 | 31.6 |  |  | 
N#Cc1ncccc1-c1ccc2c(c1)[C@@]1(COC(N)=N1)c1cc(Cl)ncc1O2 [Example 387, 3-((5S)-2′-amino-3-chlorospiro[chromeno[2,3-c]pyridine-5,4′-[1,3]oxazol]-7-yl)-2-pyridinecarbonitrile] | 672 |  | 10000 |  | 
NC1=N[C@@]2(CO1)c1cc(-c3cccnc3F)ccc1Oc1c2cc(-c2ccccc2)nc1F [Example 806, (S)-1-fluoro-7-(2-fluoropyridin-3-yl)-3-phenyl-5′H-spiro[chromeno[2,3-c]pyridine-5,4′-oxazol]-2′-amine] | 1.5 |  |  | 5 | 
COc1nc(F)cc2c1Oc1ccc(-c3cccnc3)cc1[C@]21COC(N)=N1 [Example 847, (5R)-3-fluoro-1-methoxy-7-(3-pyridinyl)spiro[chromeno[2,3-c]pyridine-5,4′-[1,3]oxazol]-2′-amine, (5S)-3-fluoro-1-methoxy-7-(3-pyridinyl)spiro[chromeno[2,3-c]pyridine-5,4′-[1,3]oxazol]-2′-amine] | 0.4 |  |  |  | 10
CC(C)(C)/C=C/c1ccc2c(c1)[C@]1(COC(N)=N1)c1cc(-c3cncnc3)ncc1O2 [Example 384, (5R)-7-((1E)-3,3-dimethyl-1-buten-1-yl)-3-(5-pyrimidinyl)spiro[chromeno[2,3-c]pyridine-5,4′-[1,3]oxazol]-2′-amine] | 4 |  | 84 |  | 
NC1=N[C@@]2(CO1)c1cc(O)ccc1Oc1ncc(Br)cc12 [Example 689, (5S)-2′-amino-3-bromospiro[chromeno[2,3-b]pyridine-5,4′-[1,3]oxazol]-7-ol] | 4070 |  | 10000 |  | 
CC1(/C=C/c2cnc3c(c2)[C@]2(COC(N)=N2)c2cc(-c4cccnc4F)ccc2O3)COC1 [Example 175, (5S)-7-(2-fluoro-3-pyridinyl)-3-((E)-2-(3-methyl-3-oxetanyl)ethenyl)spiro[chromeno[2,3-b]pyridine-5,4′-[1,3]oxazol]-2′-amine] | 0.5 | 1 |  |  | 
Cc1cnc(F)c(-c2ccc3c(c2)[C@@]2(COC(N)=N2)c2cc(-c4ccnc(F)c4)ncc2O3)c1 [Example 422, (5S)-7-(2-fluoro-5-methyl-3-pyridinyl)-3-(2-fluoro-4-pyridinyl)spiro[chromeno[2,3-c]pyridine-5,4′-[1,3]oxazol]-2′-amine] | 2.1 |  | 23.2 |  | 
NC1=N[C@@]2(CO1)c1cc(-c3cccnc3F)ccc1Oc1nc(F)c(C3=CCCOC3)cc12 [Example 903, (5S)-3-(5,6-dihydro-2H-pyran-3-yl)-2-fluoro-7-(2-fluoro-3-pyridinyl)spiro[chromeno[2,3-b]pyridine-5,4′-[1,3]oxazol]-2′-amine] | 1.4 |  | 49 |  | 
N#Cc1cccc(-c2ccc3c(c2)[C@@]2(COC(N)=N2)c2cc(C4=CCOCC4)cnc2O3)c1 [Example 169, 3-((5S)-2′-amino-3-(3,6-dihydro-2H-pyran-4-yl)spiro[chromeno[2,3-b]pyridine-5,4′-[1,3]oxazol]-7-yl)benzonitrile] | 1.3 | 4.5 |  |  | 
NC1=N[C@@]2(CO1)c1cc(-c3ccc(F)nc3)ccc1Oc1c(F)cc(C3=CCOCC3)cc12 [Example 260, (4S)-2′-(3,6-dihydro-2H-pyran-4-yl)-4′-fluoro-7′-(6-fluoro-3-pyridinyl)spiro[1,3-oxazole-4,9′-xanthen]-2-amine] | 1.9 | 10.9 |  |  | 
NC1=N[C@@]2(CO1)c1cc(-c3ccncc3F)ccc1Oc1cnc(-c3ccnc(F)c3)cc12 [Example 573, (5S)-3-(2-fluoro-4-pyridinyl)-7-(3-fluoro-4-pyridinyl)spiro[chromeno[2,3-c]pyridine-5,4′-[1,3]oxazol]-2′-amine] | 70.8 |  | 801 |  | 
CC#Cc1cncc(-c2cnc3c(c2)[C@]2(COC(N)=N2)c2cc(-c4cccnc4F)ccc2O3)c1 [Example 777, (5S)-7-(2-fluoro-3-pyridinyl)-3-(5-(1-propyn-1-yl)-3-pyridinyl)spiro[chromeno[2,3-b]pyridine-5,4′-[1,3]oxazol]-2′-amine] | 106 | 3510 |  |  | 
N#Cc1cccc(-c2ccc3c(c2)[C@@]2(COC(N)=N2)c2cc(N4CCC(F)(F)CC4)nc(F)c2O3)c1 [Example 923, 3-((5S)-2′-amino-3-(4,4-difluoro-1-piperidinyl)-1-fluorospiro[chromeno[2,3-c]pyridine-5,4′-[1,3]oxazol]-7-yl)benzonitrile] | 0.3 |  | 32 |  | 
Cc1ncncc1-c1ccc2c(c1)[C@@]1(COC(N)=N1)c1cc(C3=CCOCC3)ncc1O2 [Example 808, (5S)-3-(3,6-dihydro-2H-pyran-4-yl)-7-(4-methyl-5-pyrimidinyl)spiro[chromeno[2,3-c]pyridine-5,4′-[1,3]oxazol]-2′-amine] | 3 | 93 |  |  | 
CC(C)(O)C#Cc1ccc2c(c1)[C@]1(COC(N)=N1)c1cc(-c3cncnc3)c(F)cc1O2 [Example 336, 4-((4R)-2-amino-6′-fluoro-7′-(5-pyrimidinyl)spiro[1,3-oxazole-4,9′-xanthen]-2′-yl)-2-methyl-3-butyn-2-ol] | 6.4 | 19.3 |  |  | 
NC1=N[C@@]2(CO1)c1cc(-c3ccc(F)nc3)ccc1Oc1c(F)cc(N3C[C@@H]4C[C@H]3CO4)cc12 [Example 302, (4S)-4′-fluoro-7′-(6-fluoro-3-pyridinyl)-2′-((1S,4S)-2-oxa-5-azabicyclo[2.2.1]hept-5-yl)spiro[1,3-oxazole-4,9′-xanthen]-2-amine] | 3.1 | 5.6 |  |  | 
